Measured values reported in article PMC3958483, “Fine Specificity and Molecular Competition in SLAM Family Receptor Signalling” (PLoS ONE, 2014).
Non-standard residues stand in square brackets, D forms with d. Residues, ends and D or L forms follow the SMILES beside them. *: point of attachment. Biotin = O=C1N[C@H]2[C@H](CS[C@H]2CCCCC(=O)*)N1; pY = N[C@@H](Cc1ccc(OP(=O)(O)O)cc1)C(=O)O

What was measured:
SHIP SH2 from SHIP-1 = biological target: T1, SHIP SH2 from SHIP-1 (Homo sapiens, UniProt Q92835); experiment: SPR binding of SHIP SH2 domain to immobilised phosphopeptides; conditions: 37°C, equilibrium binding analysis
T1 construct: the single SH2 domain from SHIP-1; His-tag; made in house; host or cells: E. coli BL21(DE3)pLysS
T1 sequence (Q92835 5-101 limits assumed): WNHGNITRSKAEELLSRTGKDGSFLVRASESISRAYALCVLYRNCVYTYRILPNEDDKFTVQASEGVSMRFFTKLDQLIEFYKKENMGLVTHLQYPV
Excerpt: (§1) Biotinylated EAT-2 was produced by expression of full length human EAT-2 with a C-terminal BirA tag ([…]) in the E coli expression vector pTrcHisA. Constructs encoding the 6xHis-tagged tandem SH2 domains plus the SH3 domains of PLCγ1 (Swiss-Prot: P19174, aa 536–863) and PLCγ2 (Swiss-Prot: P16885, aa 519–838) were generated in pTrcHisA (5′ joining sequence with BglII site underlined: gag atc tcc translates as EIS). The molecular weight (MW) and theoretical extinction coefficients (EC) of recombinant PLCγ1 and PLCγ2 SH2-SH2-SH3 domains were PLCγ1; MW = 42531, EC = 63,830 M^−1 cm^−1 and PLCγ2; MW = 42415, EC = 67,270 M^−1 cm^−1.
Measurements of protein-protein affinity were performed on BIAcore 3000 and T200 systems using CM5 or biotin capture chips (GE Healthcare Ltd, UK). Streptavidin was coupled to CM5 sensor chips using standard NHS/EDC chemical linkage, followed by immobilization of biotinylated peptides. The levels of peptide immobilized were approximately 25 and 50 response units respectively of single and tandem tyrosine motifs to facilitate saturating binding and limitation of “bridging” [22], [45]. […] Equilibrium binding coefficients and dissociation and association rates were calculated using BIAevaluation and/or GraphPad Prism 5.4 software. […]

EAT-2 = biological target: T2, EAT-2 (Homo sapiens, UniProt O14796); experiment: SPR binding of EAT-2 to immobilised phosphopeptides; conditions: 37°C, ten two-fold dilutions, top concentration 0.3 μM, one-site specific binding model, curve shown in Figure 2B, read-out: KD (Figure 2B)
T2 construct: His-tag; made in house; host or cells: E. coli BL21(DE3)pLysS
T2 sequence (O14796 1-132): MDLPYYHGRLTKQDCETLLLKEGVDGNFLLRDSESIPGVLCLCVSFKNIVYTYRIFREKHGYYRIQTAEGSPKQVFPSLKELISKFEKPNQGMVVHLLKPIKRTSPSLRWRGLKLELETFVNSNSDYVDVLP
Excerpt: as §1
Soluble recombinant proteins were produced in BL21(DE3)pLysS E. coli (Calbiochem) at 37°C in 2TY medium and induced at OD 600 = 0.6 with 0.1 mM IPTG for 4 h or in 2XYT auto-induction (Formedium) medium overnight. Bacterial pellets were resuspended in ∼0.1 volume 10 mM HEPES pH7.4, 150 mM NaCl and used immediately or stored at −20°C in 10 ml aliquots. His-tag mediated protein purification was performed on a Co^2+ or Ni^2+ column by standard protocols. […] Where applicable, proteins were stored frozen in 10–25 mM HEPES pH 7.4, 200–300 mM NaCl (pH 7.4).All proteins were purified by size exclusion chromatography immediately prior to SPR analysis.
Measurements of protein-protein affinity were performed on BIAcore 3000 and T200 systems using CM5 or biotin capture chips (GE Healthcare Ltd, UK). Streptavidin was coupled to CM5 sensor chips using standard NHS/EDC chemical linkage, followed by immobilization of biotinylated peptides. The levels of peptide immobilized were approximately 25 and 50 response units respectively of single and tandem tyrosine motifs to facilitate saturating binding and limitation of “bridging” [22], [45]. Purified recombinant proteins were passed over the immobilized peptides at a range of concentrations in HBS-EP buffer, 10 mM HEPES pH 7.4, 150 mM NaCl, 3.4 mM EDTA, 0.005% surfactant, P20. Equilibrium binding coefficients and dissociation and association rates were calculated using BIAevaluation and/or GraphPad Prism 5.4 software.
The specificities of their SH2 domains overlap, introducing the concept of competition between them for ITSMs in cells where they are co-expressed, including NK cells.

[1] = Pull-down with phosphorylated CD244 ITSM1 from NK cell lysates, LC-MS/MS; type: binding; conditions: human NK cell lysates; compared with control phosphopeptide SHIP-1 Y865
Protocol: For pull-down of associated proteins, streptavidin Sepharose (GE Healthcare) was pre-coated with saturating amounts of peptide or EAT-2. NK92 cells (4×10^8) were treated with 500 μM pervanadate for 15 minutes, then lysed in PBS, 1% Triton X-100, 1 mM sodium orthovanadate in the presence of mammalian protease inhibitor solution (Sigma). Lysates were pre-cleared by centrifugation, followed by incubation with streptavidin Sepharose. Peptide or EAT-2-coated streptavidin beads were incubated with NK92 lysates for 2 hours at 4°C with rotation. Beads were washed once with 15 ml ice cold PBS/1% (v/v) Triton X-100. Bound protein was eluted using 100 mM glycine-HCl pH 2.5.
Protein samples were prepared for mass spectrometry as described previously. Briefly, eluted proteins were spun onto the membranes of Vivacon 500 filters (10,000 MWCO – Sartorius). Membranes were washed once with PBS then proteins were denatured with 8 M urea, reduced with 10 mM DTT in 25 mM ammonium bicarbonate buffer, followed by alkylation with 50 mM iodoacetamide. Proteins were then digested overnight with trypsin. Tryptic peptides were then eluted from the membrane and analyzed on an Ultimate 3000 HPLC-coupled Orbitrap XL mass spectrometer. Proteins were identified by liquid chromatography-coupled tandem mass-spectrometry (LC-MS/MS). Raw data files were converted to mzXML format using ReADW (v. 4.2.1) and submitted to the Central Proteomics Facilities Pipeline for database comparison and peptide identification. Searching against the International Protein Index (IPI) human protein sequence database for protein identification, protein and peptide hits were statistically validated by applying a 1% false discovery rate (FDR) by searching against a concatenated target/decoy database. Datasets were searched with variable peptide modifications for phosphotyrosine, phosphoserine, phosphothreonine, oxidation of methionine and deamination.
Protein identification data were exported into ProteinCenter (v3.8.3013 – Thermo Fisher) for filtering and annotation. Results were filtered to remove any proteins with less than 3 unique peptides, less than 10 percent sequence coverage, or median protein probability scores less than 0.5. To establish sample specificity, any protein with at least 10-fold greater sequence coverage in one sample compared with the other was considered to be specific for that sample.
Similarly, differences in specificity of inhibitory SH2 domain containing proteins for ITSMs are relevant to understanding mechanisms of inhibition by ITSMs. We focused on CD244 ITSMs to establish general paradigms.

| binding of SHIP SH2 domain (SHIP SH2 from SHIP-1) | Molecule | pull-down by CD244 ITSM1 [1] | other results |
| --- | --- | --- | --- |
| preference of SHIP SH2 domain | CC[C@H](C)[C@H](NC(=O)[C@H](CCSC)NC(=O)[C@H](CO)NC(=O)[C@H](Cc1ccc(OP(=O)(O)O)cc1)NC(=O)[C@@H](NC(=O)[C@@H](NC(=O)[C@H](CO)NC(=O)CNC(=O)CNC(=O)CCCC[C@@H]1SC[C@@H]2NC(=O)N[C@@H]21)[C@@H](C)O)[C@@H](C)CC)C(=O)N[C@@H](CCC(N)=O)C(=O)N[C@@H](CO)C(=O)O [CD244 ITSM2] | – | – |
| preference of SHIP SH2 domain | CC[C@H](C)[C@H](NC(=O)[C@H](CC(C)C)NC(=O)[C@H](CO)NC(=O)[C@H](Cc1ccc(OP(=O)(O)O)cc1)NC(=O)[C@H](CC(C)C)NC(=O)[C@@H](NC(=O)[C@H](Cc1ccc(O)cc1)NC(=O)[C@H](C)NC(=O)[C@@H]1CCCN1C(=O)CCCC[C@@H]1SC[C@@H]2NC(=O)N[C@@H]21)[C@@H](C)O)C(=O)N[C@@H](CCC(N)=O)C(=O)N1CCC[C@H]1C(=O)O [CD244 ITSM3] (Biotin-PAYTL[pY]SLIQP-OH; C-terminus assumed) | – | – |
| – | CC[C@H](C)[C@H](NC(=O)[C@H](CCC(=O)O)NC(=O)[C@@H](NC(=O)[C@@H](NC(=O)[C@H](CO)NC(=O)[C@H](Cc1ccc(OP(=O)(O)O)cc1)NC(=O)[C@@H](NC(=O)[C@@H](NC(=O)[C@H](CC(N)=O)NC(=O)[C@H](C)NC(=O)[C@@H]1CCCN1C(=O)CCCC[C@@H]1SC[C@@H]2NC(=O)N[C@@H]21)[C@@H](C)O)C(C)C)[C@@H](C)O)C(C)C)C(=O)O [CRACC ITSM2] (Biotin-PANTV[pY]STVEI-OH) | – | Kd (EAT-2): 1 nM |
| – | Growth factor receptor-bound protein 2 (GRB2): SH2 domain containing protein pulled down by CD244 ITSM1 | pulled down by the ITSM peptide | – |
| – | SHP-1: SH2 domain containing phosphatase | pulled down by the ITSM peptide | – |
| – | SHP-2: SH2 domain containing tyrosine phosphatase | pulled down by the ITSM peptide | – |
